According to patent US20140038953A1, “COMPOSITIONS AND METHODS FOR CARDIOVASCULAR DISEASE” (THE GENERAL HOSPITAL CORPORATION, priority 2011, published 2014):
Entries after “also recorded” stand apart in the source; their conditions may differ.

What was measured:
LDLR−/− mice = assay: Vascular inflammation / macrophage activity in LDLR−/− mice (Prosense, MAC2); format: in vivo; conditions: for vascular inflammation / macrophage activity (Prosense): high fat diet 20 weeks, 2.5 mg/kg ip daily, vs vehicle, 2.5 mg/kg
Method: Fluorescence reflectance imaging (FRI), was performed as previously described. […] After dissection, aortae were subjected to ex vivo near infrared fluorescence reflectance imaging using an Odyssey Imaging System (LI-COR Biotechnology, Lincoln, Nebr.), with integrated signal intensities determined for regions of interest using software version 3.0.16.
For immunofluorescence, frozen sections were post-fixed in cold methanol and incubated with polyclonal antibodies specific for p-SMAD1/5/8 (1:100, Cell Signaling, Danvers, Mass.) or MAC2 (1:100, Cedarlane, Burlington, ON) followed by FITC labeled Goat Anti-Rabbit IgG or Rhodamine Goat Anti-Rat IgG (both Jackson Immuno Research, West Grove, Pa.), respectively.
Mice were injected with Osteosense (to label sites of bone-forming activity via osteoblast binding of this probe) and Prosense (to label sites of macrophage-mediated inflammation). Aortae were explanted and subjected to fluorescence reflectance imaging (LICOR Odyssey imager).
Inflammatory activity, a surrogate of atherosclerotic plaque burden, was assessed by near-IR fluorescence of Prosense (fluor-cathepsin substrate) at […]. Ten individual mice were used in each treatment group.
Inflammatory activity, a surrogate of atherosclerotic plaque burden, was assessed by integrated intensity of near-IR fluorescence of Prosense (fluor-cathepsin substrate) at […].
Each treatment group consisted of a total of 10 mice. After 4 weeks of atherogenic diet and drug or vehicle treatment, the animals were sacrificed. The frontal plane sections of the aortic arch were dissected out and stained for macrophage marker (MAC2) and counterstained with DAPI.

[1] = Body weight, food intake and bone mineral density in LDLR−/− mice; format: in vivo; conditions: 2.5 mg/kg ip daily, vs vehicle
HMG-CoA reductase = target: T1, HMG-CoA reductase (Homo sapiens, UniProt P04035); assay: HMG-CoA reductase activity assay; format: biochemical; conditions: compound 13 at 50 nM and 100 nM
T1 construct: purchased Sigma-Aldrich CS1090
T1 sequence (P04035 426-888 limits assumed): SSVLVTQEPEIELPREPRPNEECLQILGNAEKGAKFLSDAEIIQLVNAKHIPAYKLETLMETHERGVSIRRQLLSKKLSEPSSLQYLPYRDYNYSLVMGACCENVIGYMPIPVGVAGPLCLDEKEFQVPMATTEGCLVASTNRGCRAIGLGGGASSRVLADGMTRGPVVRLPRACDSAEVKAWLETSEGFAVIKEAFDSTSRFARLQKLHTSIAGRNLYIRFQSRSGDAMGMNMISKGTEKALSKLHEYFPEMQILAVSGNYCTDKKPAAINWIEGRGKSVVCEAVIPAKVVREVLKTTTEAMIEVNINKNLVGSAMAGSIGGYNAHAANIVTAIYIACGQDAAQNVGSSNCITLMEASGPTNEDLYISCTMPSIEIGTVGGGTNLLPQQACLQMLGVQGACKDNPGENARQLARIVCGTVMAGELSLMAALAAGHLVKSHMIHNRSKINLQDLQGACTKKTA
From the text: Enzyme activity was quantified using a commercially available Assay Kit (CS1090 HMG-CoA Reductase Kit, Sigma-Aldrich, St. Louis, Mo.)

phospho-Smad 1/5/8 = assay: Phospho-Smad 1/5/8 immunohistochemistry in MGP−/− aortas; format: in vivo; conditions: MGP−/− mice, 2.5 mg/kg once daily IP day 1 to 28
Method: MGP−/− mice were treated with either vehicle or the small molecule BMP type I receptor inhibitor compound 13 (2.5 mg/kg once daily IP) from day 1 to 28. Compound 13 is used as a BMP inhibitor positive control compound in these experiments. Whole aortas were harvested for phospho-Smad 1/5/8 (P-Smad) immunohistochemistry, a marker of BMP signaling, and for Alizarin Red staining of calcium. Osteogenic activity in aortas was visualized ex vivo by the uptake of a fluorescent bisphosphonate imaging probe. MGP−/− mice were also treated with vehicle or compound 13 to ascertain if inhibition of BMP signaling could impact survival, using Kaplan-Meier and Cox regression analysis. […] To further quantify aortic calcium, a fluorescent bisphosphonate agent that specifically binds to hydroxyapatite (OsteoSense 680 nm, Perkin Elmer) was used. (Aikawa E, et al. Multimodality molecular imaging identifies proteolytic and osteogenic activities in early aortic valve disease. Circulation. 2007; 115(3):377-386 and Zaheer A, et al. In vivo near-infrared fluorescence imaging of osteoblastic activity. Nature biotechnology. 2001; 19(12):1148-1154.) MGP−/− mice at 27 days of age treated with vehicle or compound 13 received OsteoSense via tail vein, and 24 h later, aortas were harvested for imaging. […]

[2] = high fat diet and treatment 6 weeks, compound 13 2.5 mg/kg ip daily, ALK3-Fc 2 mg/kg ip every other day

In the case of `c1ccc2c(-c3cnn4cc(-c5ccc(N6CCNCC6)cc5)cnc34)ccnc2c1` [Compound 13, 4-[6-(4-piperazin-1-ylphenyl)pyrazolo[1,5-a]pyrimidin-3-yl]quinoline], the “MAC2 staining of aortic arch” value (LDLR−/− mice; atherogenic diet and treatment 4 weeks, compound 13 2.5 mg/kg IP daily, ALK3-Fc 2 mg/kg IP every other day) was “decreased staining for MAC2”, the “vascular inflammation / macrophage activity (Prosense)” value (LDLR−/− mice) was “marked reduction in vascular inflammation; also recorded: severely diminished evidence of macrophage activity” and the “vascular inflammation / macrophage activity (Prosense)” value (LDLR−/− mice; listed as BMP inhibitor positive control compound) was “can reduce vascular calcification and vascular inflammation”. For the same compound, the “foam cell accumulation / macrophage burden (MAC2)” value (LDLR−/− mice; [2]) was “inhibited foam cell accumulation”, the “macrophage / cathepsin activity in aorta (Prosense)” value (LDLR−/− mice; [2]) was “as did treatment with compound 13; also recorded: significantly reduced; also recorded: significantly inhibited” and the “food intake per gram body weight” value ([1]; 6 weeks high fat diet, 2.5 mg/kg) was “did not differ significantly; also recorded: not associated with a reduction in body weight or food intake”. The body weight ([1]; 20 weeks high fat diet, 2.5 mg/kg) was “did not differ significantly; also recorded: not associated with a reduction in body weight or food intake”, the “bone mineral density (femur, dual energy X-ray absorptiometry)” value ([1]; HFD 20 weeks) was “did not differ” and the “HMG-CoA reductase enzyme activity in vitro” value (HMG-CoA reductase) was “did not inhibit; also recorded: lack of impact”. The “aortic P-Smad (Smad 1/5/8 phosphorylation)” value (phospho-Smad 1/5/8; 2.5 mg/kg) was “reduced aortic P-Smad” and the “aortic P-Smad (Smad 1/5/8 phosphorylation)” value (phospho-Smad 1/5/8; listed as compound 13, 2.5 mg/kg) was “reduced BMP signaling”.
